{"source": "patent US10500301B2", "about": "“Agent for salting out active principles in dressings containing at least one of fatty substance” (URGO RECHERCHE INNOVATION ET DEVELOPPEMENT, priority 2007, dated 2019)", "key": {"[1]": {"test": "Release of the active substance from interface dressings into physiological saline solution, HPLC assay", "format": "physicochemical", "details": "Sepinov EMT 10 versus Montanox 80 as releasing agent in interface dressings, irrespective of the active substance", "experimental": "In the case of interface dressings, prepared from the masses of examples 1 to 4 and 13 to 18, samples of 25 cm^2 of dressing (cut with a calibrated punch and precisely weighed) were introduced into an Erlenmeyer flask containing 10 ml of physiological saline solution. The glassware, hermetically sealed, was placed in an incubator at 37° C. for 24 h. The supernatant was removed and filtered. The amount of active substance was assayed by HPLC (high performance liquid chromatography) according to the methods described below.\nThe following conditions for assaying by high performance liquid chromatography (HPLC) were used: […]\nThe detection threshold for the potassium sucrose octasulfate was 0.06 mg/ml. When no peak was detected, the result was increased by the detection threshold. […]\nThe detection threshold for the silver sulfadiazine was 0.0006 mg/ml. When no peak was detected, the result was increased by the detection threshold.\n• A calibration straight line was plotted using the calibration points, and the equation of the straight line y=ax+b (r^2>0.999), in which y=surface area under the peak x=concentration of the standard (in mg/ml) r^2=determination coefficient, was calculated. • The content of potassium sucrose octasulfate or silver sulfadiazine (x) was calculated. […]\nThe percentage of release of the active substance is calculated according to the following formula: […]"}, "[2]": {"tested_on": "normal human dermal fibroblasts (NHDF) R9PF2", "test": "Effect of dressings on fibroblast cultures (MTT test, tritiated thymidine incorporation)", "format": "cell-based", "details": "releasing agent in dressings", "experimental": "• Type: pool of normal human dermal fibroblasts (NHDF) R9PF2 • Culture: 37° C., 5% CO2 Culture Medium: • DMEM (Dulbecco's Modified Eagle Medium, Invitrogen 21969035) • 2 mM L-glutamine (Invitrogen 25030024) • 50 UI/ml penicillin, 50 μg/ml streptomycin (Invitrogen 15070063) • 10% fetal calf serum (v/v, Invitrogen 10270098). Products Tested:\nDressings according to examples 1 and 23 were cut to the size of the wells and tested.\nThe fibroblasts were seeded at confluence in a 12-well plate.\nPieces of each dressing were cut to a size of 1.4 cm×1.4 cm (i.e. 1.96 cm^2), applied to the surface of the fibroblasts and held in place using a plug. A control without dressing but with a plug, and also a control without dressing and without plug were carried out.\nThe cells were then incubated for 48 hours, 96 hours and 168 hours (7 days) at 37° C. and 5% CO2. For each incubation time, the metabolic activity was measured using a standard MTT test, which accounts for the mitochondrial dehydrogenases activity. Tritiated thymidine ([methyl-3H]-thymidine, Amersham TRK 686 2.5 μCi/ml final concentration) was added during the last 24 hours of incubation, and then the DNA of the cells of the cell layers was extracted and purified and the radioactivity incorporated into the DNA was counted using a scintillation counter.\nAll experiments were carried out in triplicate. […]"}}, "data": [{"substance": "polysorbate 80", "values": [{"measurement": "Release of the active substance with the releasing agent, comparison in words", "setting": "[1]", "result": "substantially the same release of the active substance"}, {"measurement": "Effect on fibroblasts (toxicity / proliferation), in words", "setting": "[2]", "result": "exhibits toxicity with respect to these cells"}]}]}
